Reference: patent US8993310B2, “Device for diagnosis of physiologic status and/or selection of the best spermatozoa of a semen sample based on chemotaxis, and procedure of use thereof” (Consejo Nacional de Investigaciones Cientificas y Technicas …, priority 2009, dated 2015)
Entries after “also recorded” stand apart in the source; their conditions may differ.

Tested on: spermatozoa
Assay: Sperm separation by chemotaxis in the two-compartment device (aggregation in compartment 1a)
Assay type: cell-based
Conditions: for percentage of aggregated spermatozoa in compartment 1a by chemotaxis (net, Δ vs control): 6 million S/ml, 10 pM progesterone, 20 minutes incubation
Procedure: Separation of mobile spermatozoa (S) of seminal plasma is done by the Percoll technique. A volume of about 2 ml semen is used, which is deposited on 1 ml Percoll gradient (lower layer: 500 μl Percoll 95%, upper layer: 500 μl of Percoll 47.5%, in HAM-F10). After centrifuging 20 minutes at 1800 rpm, the cell pellet is recovered and washed twice by centrifugation for 7 min at 1000 rpm, with HAM-F10 medium. Finally, the recovered pellet is suspended in 1 ml of HAM-F10 medium, cell count is performed in a cell count chamber, and volume is adjusted in order to obtain a concentration of 8 million S/ml. S capability is increased in HAM-F10 medium supplemented with 1% human serum albumin (HSA) for 4 hours a 37° C., under 5% CO2 atmosphere in air.
When capacitation time is finished, S concentration is adjusted in order to obtain 6 million mobile S/ml, and two devices are set up as described in the preceding section (FIGS. 1-3), one without attractant as negative control, and the other with progesterone as attractant.
To set up the device control, a device as described in FIGS. 1 to 3, proceed as follows: 1) the plug is placed in compartment 1a, where culture medium (HAM-F10/1%HSA) is placed, 2) the bridge linking both compartments is filled with culture medium, 3) S suspension is placed in compartment 1b (130 μl of the solution of 6 million mobile S/ml) and this compartment is closed with the plug, 4) compartment 1a is unplugged and filled with culture medium (130 μl).
For device set up with the attractant, another device is prepared as described in FIGS. 1 to 3, like the device control but replacing culture medium with a 10 pM Progesterone solution diluted in culture medium. Once both devices are set up (“Control” and “Attractant”), they are incubated for 20 minutes at 37° C., under 5% CO2 atmosphere in air.
To take the device apart and recover the best spermatozoa, the compartment solution (1a) containing culture medium or attractant is removed. On the spermatozoa suspension removed from compartment 1a of both devices (control and attractant) cell count is performed in a cell count chamber. Then the difference in percentage of S found in each of these two compartments is determined, which enables to value net percentage of S migrating to the attractant-containing compartment (“Δ”).

Compound | sperm aggregation in compartment 1a by chemotaxis when cells were previously treated with inhibitor or antibody (cells pre-treated, progesterone as attractant (FIGS. 8 and 9)) | percentage of aggregated spermatozoa in compartment 1a by chemotaxis (net, Δ vs control) | percentage of aggregated spermatozoa in compartment 1a by chemotaxis (net, Δ vs control) (listed as Progesterone) [%] | sperm aggregation in a decreasing versus an increasing gradient of progesterone (decreasing gradient of attractant compared with increasing gradient (FIG. 10)) | sperm aggregation in the absence of gradient of progesterone (equal concentration of hormone in both compartments 1a and 1b (FIG. 10))
C[C@H]1O[C@@H](n2cnc3c(N)ncnc32)C[C@@H]1O [ddAdo] | no sperm aggregation due to chemotaxis is seen | – | – | – | –
CC(=O)[C@H]1CC[C@H]2[C@@H]3CCC4=CC(=O)CC[C@]4(C)[C@H]3CC[C@]12C [progesterone] | – | about 10% | 9±0.4 | similar | sperm aggregation is reduced; also recorded: no sperm aggregation observed
